The source of these data is US9018215B2, “Heteroaromatic compounds, medicaments containing said compounds, use thereof and processes for the preparation thereof” (Boehringer Ingelheim International GmbH, priority 2013, dated 2015).

The assay addresses T1, ENaC (Epithelial Sodium Channel) (Mus musculus, UniProt Q61180+Q9WU38+Q9WU39).
T1 construct: Mouse kidney M-1 cells were cultivated in DMEM containing 5% FCS and 5 μM dexamethasone; endogenous in cells; host or cells: mouse kidney M-1 cells
T1 sequence (Q61180 1-699): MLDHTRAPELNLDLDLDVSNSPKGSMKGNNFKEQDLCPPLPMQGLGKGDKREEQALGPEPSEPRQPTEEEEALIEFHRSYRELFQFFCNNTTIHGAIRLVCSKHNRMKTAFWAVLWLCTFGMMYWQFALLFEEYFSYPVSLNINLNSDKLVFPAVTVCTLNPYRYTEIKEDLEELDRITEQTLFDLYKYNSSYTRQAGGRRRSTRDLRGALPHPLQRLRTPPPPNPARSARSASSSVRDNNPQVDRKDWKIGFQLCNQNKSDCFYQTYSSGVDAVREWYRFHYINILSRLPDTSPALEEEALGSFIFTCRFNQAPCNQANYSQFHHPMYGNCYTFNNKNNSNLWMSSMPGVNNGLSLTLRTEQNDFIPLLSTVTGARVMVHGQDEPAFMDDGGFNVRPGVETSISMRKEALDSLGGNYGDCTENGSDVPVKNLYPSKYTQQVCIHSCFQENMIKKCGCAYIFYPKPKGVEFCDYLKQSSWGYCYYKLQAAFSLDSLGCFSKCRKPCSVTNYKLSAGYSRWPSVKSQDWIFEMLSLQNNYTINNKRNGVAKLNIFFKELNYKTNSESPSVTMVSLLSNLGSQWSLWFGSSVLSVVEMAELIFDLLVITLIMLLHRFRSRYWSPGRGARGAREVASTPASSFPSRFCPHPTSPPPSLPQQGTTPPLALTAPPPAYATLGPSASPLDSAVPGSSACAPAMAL
T1 sequence (Q9WU38 1-638): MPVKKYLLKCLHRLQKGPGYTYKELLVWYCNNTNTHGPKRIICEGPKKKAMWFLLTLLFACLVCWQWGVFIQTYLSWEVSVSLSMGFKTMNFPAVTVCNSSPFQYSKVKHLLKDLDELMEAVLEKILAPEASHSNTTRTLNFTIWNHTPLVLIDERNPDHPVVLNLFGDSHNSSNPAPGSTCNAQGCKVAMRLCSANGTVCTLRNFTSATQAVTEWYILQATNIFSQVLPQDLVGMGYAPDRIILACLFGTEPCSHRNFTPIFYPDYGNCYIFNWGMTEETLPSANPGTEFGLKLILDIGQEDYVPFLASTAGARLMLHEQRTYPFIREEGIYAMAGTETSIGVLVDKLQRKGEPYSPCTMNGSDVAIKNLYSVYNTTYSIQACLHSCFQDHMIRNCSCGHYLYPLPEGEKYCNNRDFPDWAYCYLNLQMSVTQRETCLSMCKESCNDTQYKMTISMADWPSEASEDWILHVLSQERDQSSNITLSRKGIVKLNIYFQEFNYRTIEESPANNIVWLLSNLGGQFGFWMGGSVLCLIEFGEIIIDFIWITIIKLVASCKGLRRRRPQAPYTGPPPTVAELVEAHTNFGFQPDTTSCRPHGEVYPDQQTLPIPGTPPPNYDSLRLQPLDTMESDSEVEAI
T1 sequence (Q9WU39 1-655): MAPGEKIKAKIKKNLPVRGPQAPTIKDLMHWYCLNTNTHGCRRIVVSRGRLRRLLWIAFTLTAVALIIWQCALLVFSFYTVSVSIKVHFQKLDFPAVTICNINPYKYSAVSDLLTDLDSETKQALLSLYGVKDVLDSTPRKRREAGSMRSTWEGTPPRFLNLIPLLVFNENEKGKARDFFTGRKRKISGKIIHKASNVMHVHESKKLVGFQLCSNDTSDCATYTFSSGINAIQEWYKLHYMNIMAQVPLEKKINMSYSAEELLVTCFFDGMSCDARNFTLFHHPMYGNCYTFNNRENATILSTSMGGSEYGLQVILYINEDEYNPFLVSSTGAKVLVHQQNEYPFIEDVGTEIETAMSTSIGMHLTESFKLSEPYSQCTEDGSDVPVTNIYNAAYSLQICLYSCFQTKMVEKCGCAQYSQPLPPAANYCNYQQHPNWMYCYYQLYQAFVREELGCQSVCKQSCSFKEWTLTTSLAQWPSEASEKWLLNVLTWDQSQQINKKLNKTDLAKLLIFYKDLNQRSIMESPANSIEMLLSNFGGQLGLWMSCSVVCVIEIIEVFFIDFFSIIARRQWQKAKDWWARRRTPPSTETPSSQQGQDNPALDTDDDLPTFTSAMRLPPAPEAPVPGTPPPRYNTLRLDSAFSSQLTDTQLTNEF
Kind of assay: Ussing chamber assay: short circuit current (I_sc) in M-1 cells, inhibition of the amiloride sensitive I_SC. Type of assay: cell-based. As to conditions: Mouse kidney M-1 cells on transwell filters, compounds added to the apical solution, 37° C., voltage-clamp mode. As for the experimental part: Mouse kidney M-1 cells were cultivated in DMEM containing 5% FCS and 5 μM dexamethasone for 10 to 12 days on polyester transwell filters. Filters were inserted into a teflon-coated well-plate which fit into the in-house ussing chamber system. Prior to measurement the medium of M-1 cells was replaced with Caco-2 transport buffer (Invitrogen, Germany). During measurements, the Ussing chamber temperature was kept at 37° C. Short circuit currents (I_sc) were measured in the voltage-clamp mode using an in-house built amplifier (Boehringer Ingelheim, Biberach) with the software package Lab View for data acquisition and analysis. The transepithelial electrical resistance (TEER) was determined by the application of voltage steps of ±5 mV every 5 sec. Compounds were administered at a final concentration of 3 μM or at increasing concentrations (1-3-10 μM) to the apical solution. At the end of each experiment the amiloride sensitive I_SC was measured by adding 3 μM amiloride to the apical compartment. Results are expressed as inhibition in percent of the amiloride effect or as IC50. With the example compounds given above, the following IC50 values were determined in the Ussing Chamber assay: […]
On to `COC(=O)c1cc(CN2CCC(N/C(N)=N/C(=O)c3nc(Br)c(N)nc3N)CC2)ccn1` [Example 1.19], for which the IC50 (as a rule, the midpoint of a concentration-inhibition curve) is 4 nM.

As to `COC(=O)c1ccc2nc(CN3CCC(NC(N)=NC(=O)c4nc(Cl)c(N)nc4N)CC3)cn2c1` [Example 1.7], the IC50 was found to be 4 nM. In the case of `COC(=O)c1cc(CN2CCC(N/C(N)=N/C(=O)c3nc(Cl)c(N)nc3N)CC2)ccn1` [Example 1.1] it was 3 nM; in that of `N/C(=N\C(=O)c1nc(Cl)c(N)nc1N)NC1CCN(Cc2ccnc(C(=O)O)c2)CC1` [Example 3.1], 21 nM; in that of `NC(=NC(=O)c1nc(Cl)c(N)nc1N)NC1CCN(Cc2cn3cc(C(=O)NCCO)ccc3n2)CC1` [Example 1.8], 11 nM. For `N/C(=N\C(=O)c1nc(Br)c(N)nc1N)NC1CCN(Cc2ccnc(C(=O)O)c2)CC1` [Example 4.1], the IC50 is 16 nM.

In turn, `C#Cc1cncc(CN2CCC(NC(N)=NC(=O)c3nc(Cl)c(N)nc3N)CC2)c1` [Example 1.12] displayed an IC50 of 4 nM. The result for `NC(=NC(=O)c1nc(Cl)c(N)nc1N)NC1CCN(Cc2ccnc(C(=O)NCCOCCO)c2)CC1` [Example 1.14] reads 4 nM; that for `NC(=NC(=O)c1nc(Cl)c(N)nc1N)NC1CCN(Cc2cscn2)CC1` [Example 1.9], 17 nM; that for `NC(=NC(=O)c1nc(Cl)c(N)nc1N)NC1CCN(Cc2ccccn2)CC1` [Example 1.5], 15 nM. Take `NC(=NC(=O)c1nc(Cl)c(N)nc1N)NC1CCN(Cc2nc3ccccc3[nH]2)CC1` [Example 1.16]: the IC50 is 5 nM. `COC(=O)c1ccc(CN2CCC(NC(N)=NC(=O)c3nc(Cl)c(N)nc3N)CC2)s1` [Example 1.11] displayed an IC50 of 3 nM. `NC(=NC(=O)c1nc(Cl)c(N)nc1N)NC1CCN(Cc2ccc(CCc3cccnc3)nc2)CC1` [Example 1.4] gave an IC50 of 3 nM.

For the compound `NC(=NC(=O)c1nc(Cl)c(N)nc1N)NC1CCN(Cc2ccc(Br)nc2)CC1` [Example 1.17], the IC50 was found to be 5 nM. As to `NC(=NC(=O)c1nc(Cl)c(N)nc1N)NC1CCN(Cc2cn3cc(I)ccc3n2)CC1` [Example 1.13], the 50% inhibitory concentration (IC50) came out at 3 nM. The result for `N/C(=N\C(=O)c1nc(Cl)c(N)nc1N)NC1CCN(Cc2ccc(C(=O)O)s2)CC1` [Example 3.2] reads 31 nM; that for `NC(=NC(=O)c1nc(Cl)c(N)nc1N)NC1CCN(Cc2ccnc(C(=O)N(CCO)CCO)c2)CC1` [Example 1.2], 10 nM. With `N/C(=N\C(=O)c1nc(Cl)c(N)nc1N)NC1CCN(Cc2ccc(=O)n(Cc3cn(Cc4ccccn4)nn3)c2)CC1` [Example 2.1], inhibition was half-maximal at 6 nM (IC50). Against the preceding compound, the IC50 is about 1.7-fold lower. The result for `NC(=NC(=O)c1nc(Cl)c(N)nc1N)NC1CCN(Cc2ccc(=O)n(Cc3cccnc3)c2)CC1` [Example 1.6] reads 9 nM; that for `NC(=NC(=O)c1nc(Cl)c(N)nc1N)NC1CCN(Cc2nc3ccccc3c(=O)[nH]2)CC1` [Example 1.10], 4 nM. `NC(=NC(=O)c1nc(Cl)c(N)nc1N)NC1CCN(Cc2cn3cc(C(=O)NCCOCCO)ccc3n2)CC1` [Example 1.3] displayed an IC50 of 18 nM.

In the case of `NC(=NC(=O)c1nc(Cl)c(N)nc1N)NC1CCN(Cc2cn3ccccc3n2)CC1` [Example 1.15], the midpoint of inhibition, the IC50, lay at 6 nM. The compound `N/C(=N\C(=O)c1nc(Cl)c(N)nc1N)NC1CCN(Cc2cncc(-c3cn(CCOCCOCCOCCO)nn3)c2)CC1` [Example 2.2] showed an IC50 of 12 nM.
